Measurements as given in PMC9944328 (Nature Communications, 2023).
Several values for one entry are separate records, joined by “and”; a condition that tells them apart may be missing. Equal values may be shown once.

Target: SSTR2 (Homo sapiens, UniProt P30874)
Assay: SSTRs Gi-mediated cAMP inhibition, GloSensor, HEK293, 5 μM forskolin, 15 min room temperature (SSTR2 wild-type);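 for Bottom (best-fit value): normalized to the maximal wild-type response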;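 for Bottom (best-fit): normalized to the maximal wild-type response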;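 for Span (best-fit value), cAMP inhibition: normalized to the maximal wild-type response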;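 for Span (best-fit value): normalized to the maximal wild-type response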;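 for Span (best-fit): normalized to the maximal wild-type response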;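 for Span: normalized to the maximal wild-type response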;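 for Top (best-fit): normalized to the maximal wild-type response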
Format: cell-based
Set-up: Best-fit Top, cAMP inhibition / Span, cAMP inhibition / Best-fit Bottom / Best-fit Top / Best-fit Span / Bottom / Span (best-fit value), cAMP inhibition / Top (best-fit value), cAMP inhibition: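 normalized to the maximal wild-type response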
Conditions: for Span / Top: best-fit, runs 1-3
Protocol: The levels of the intracellular 3′, 5′-cyclic AMP (cAMP) were measured by the GloSensor cAMP assay (Promega) as described in the previous studies[28],[41] which has been widely used. The human full-length SSTRs and mutants were cloned into the pcDNA3.1+ vector with a HA signal sequence followed by a Flag tag at the N-terminus. HEK293 cells (ATCC, CRL-1573) were seeded into 6-well microplates at a density of 1.0 × 10^6 cells/well and cultured for 24 h at 37 °C with 5% CO2. Cells were then co-transfected with SSTR wild-type or mutants and GloSensor plasmids. After 24 h of transfection, the cells were dissociated with TrypLE™ Express Enzyme (1X) (Thermo Fisher Scientific) and collected by centrifugation at 500 × g for 5 min. Then the collected cells were suspended in Hank’s balanced salt solution [HBSS (Thermo Fisher Scientific)] supplemented with […] (YEASEN), and then the suspension cells were seeded into 96-well plates with 90 μl/well. After incubating at room temperature for 40 min, 5 μM forskolin and ligands diluted in HBSS were added to each well and the plates were incubated at room temperature for 15 min. […] were measured using the Synergy H1 microplate reader (BioTek) and the data presented are means of at least three independent experiments.

[1] = WT-1 (run 1 of each mutant's batch)

Chain of SSTR2 (P30874 whole entry): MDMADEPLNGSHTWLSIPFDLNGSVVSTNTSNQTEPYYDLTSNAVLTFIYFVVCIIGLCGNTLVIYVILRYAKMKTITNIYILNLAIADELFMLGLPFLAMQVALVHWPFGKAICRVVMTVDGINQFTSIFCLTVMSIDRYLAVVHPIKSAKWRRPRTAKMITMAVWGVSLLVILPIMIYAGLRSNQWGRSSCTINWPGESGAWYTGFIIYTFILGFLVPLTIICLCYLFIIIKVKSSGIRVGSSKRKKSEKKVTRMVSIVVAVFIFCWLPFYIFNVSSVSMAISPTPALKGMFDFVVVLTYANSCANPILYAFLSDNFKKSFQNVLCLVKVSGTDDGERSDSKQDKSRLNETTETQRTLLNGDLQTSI

N#Cc1cccc(-c2ccc3ncc(-c4cc(F)cc(F)c4)c(N4CCC(N)CC4)c3c2)c1O [paltusotine]
EC50 (EC50, Gi signaling, SSTR2 WT, n=6): 1.88 ± 3.15 nM | EC50 (EC50, WT-1, run paired with D295F): 0.307 nM | EC50 (EC50, WT-1, run paired with F294Y): 0.307 nM | EC50 (EC50, WT-1, run paired with I195M): 1.09 nM | EC50 (EC50, WT-1, run paired with T194H): 1.16 nM | EC50 (EC50, WT-1, run paired with V103N): 2.1 nM | EC50 (EC50, WT-1, run paired with Y205R): 0.537 nM | EC50 (EC50, WT-2, run paired with D295F): 0.501 nM | EC50 (EC50, WT-2, run paired with F294Y): 0.501 nM | EC50 (EC50, WT-2, run paired with I195M): 2.02 nM | EC50 (EC50, WT-2, run paired with T194H): 1.6 nM | EC50 (EC50, WT-2, run paired with V103N): 1.35 nM | EC50 (EC50, WT-2, run paired with Y205R): 0.536 nM | EC50 (EC50, WT-3, run paired with D295F): 1.09 nM | EC50 (EC50, WT-3, run paired with F294Y): 1.16 nM | EC50 (EC50, WT-3, run paired with T194H): 1.35 nM | EC50 (EC50, WT-3, run paired with V103N): 1.08 nM | EC50 (EC50, WT-3, run paired with Y205R): 2.1 nM | EC50 (EC50, cAMP inhibition best-fit, D122A set, WT-1): 2.35 nM | EC50 (EC50, cAMP inhibition best-fit, D122A set, WT-2): 2.66 nM | EC50 (EC50, cAMP inhibition best-fit, D122A set, WT-3): 0.501 nM | EC50 (EC50, cAMP inhibition best-fit, F127A set, WT-1): 1.55 nM | EC50 (EC50, cAMP inhibition best-fit, F127A set, WT-2): 1.16 nM | EC50 (EC50, cAMP inhibition best-fit, F127A set, WT-3): 0.298 nM | EC50 (EC50, cAMP inhibition best-fit, I130A set, WT-1): 0.295 nM | EC50 (EC50, cAMP inhibition best-fit, I130A set, WT-2): 0.321 nM | EC50 (EC50, cAMP inhibition best-fit, I130A set, WT-3): 1.13 nM | EC50 (EC50, cAMP inhibition best-fit, Q102A set, WT-2): 1.19 nM | EC50 (EC50, cAMP inhibition best-fit, Q102A set, WT-3): 1 nM | EC50 (EC50, cAMP inhibition best-fit, Q126A set, WT-1): 0.777 nM | EC50 (EC50, cAMP inhibition best-fit, Q126A set, WT-2): 1.58 nM | EC50 (EC50, cAMP inhibition best-fit, Q126A set, WT-3): 0.845 nM | EC50 (EC50, cAMP inhibition best-fit, V103A set, WT-1): 1.58 nM | EC50 (EC50, cAMP inhibition best-fit, V103A set, WT-2): 0.605 nM | EC50 (EC50, cAMP inhibition best-fit, V103A set, WT-3): 1.19 nM | EC50 (EC50, subtype selectivity series, Suppl. Tables 4/5, SSTR2-WT, n=6): 2.08 ± 1.39 nM | Bottom (best-fit value) (F208A panel, WT-1 (run 1)): -1.411 | LogEC50 (best-fit value) (F208A panel, WT-1 (run 1)): -9.3 | Span (best-fit value) (F208A panel, WT-1 (run 1)): 105.2 | Top (best-fit value) (F208A panel, WT-1 (run 1)): 103.8 | Bottom (best-fit value) (F208A panel, WT-2 (run 2)): 4.431 | LogEC50 (best-fit value) (F208A panel, WT-2 (run 2)): -8.26 | Span (best-fit value) (F208A panel, WT-2 (run 2)): 92.56 | Top (best-fit value) (F208A panel, WT-2 (run 2)): 96.99 | Bottom (best-fit value) (F208A panel, WT-3 (run 3)): 0.6589 | LogEC50 (best-fit value) (F208A panel, WT-3 (run 3)): -8.524 | Span (best-fit value) (F208A panel, WT-3 (run 3)): 92.36 | Top (best-fit value) (F208A panel, WT-3 (run 3)): 93.02 | Bottom (best-fit value) (F265A panel, WT-1 (run 1)): -3.016 | LogEC50 (best-fit value) (F265A panel, WT-1 (run 1)): -8.949 | Span (best-fit value) (F265A panel, WT-1 (run 1)): 106.8 | Top (best-fit value) (F265A panel, WT-1 (run 1)): 103.7 | Bottom (best-fit value) (F265A panel, WT-2 (run 2)): -3.466 | LogEC50 (best-fit value) (F265A panel, WT-2 (run 2)): -9.53 | Span (best-fit value) (F265A panel, WT-2 (run 2)): 116.5 | Top (best-fit value) (F265A panel, WT-2 (run 2)): 113 | Bottom (best-fit value) (F265A panel, WT-3 (run 3)): -6.932 | LogEC50 (best-fit value) (F265A panel, WT-3 (run 3)): -9.494 | Span (best-fit value) (F265A panel, WT-3 (run 3)): 126.2 | Top (best-fit value) (F265A panel, WT-3 (run 3)): 119.3 | Bottom (best-fit value) (F272A panel, WT-1 (run 1)): -5.769 | Top (best-fit value) (F272A panel, WT-1 (run 1)): 108 | Bottom (best-fit value) (F272A panel, WT-2 (run 2)): -4.038 | Top (best-fit value) (F272A panel, WT-2 (run 2)): 107.8 | Bottom (best-fit value) (F272A panel, WT-3 (run 3)): -0.5501 | Top (best-fit value) (F272A panel, WT-3 (run 3)): 106.1 | Fold of WT (Gi signaling EC50, SSTR2 WT): 1 | Emax (HEK293): 100% | Bottom (best-fit value) (P220A panel, WT-1 (run 1)): -3.466 | LogEC50 (best-fit value) (P220A panel, WT-1 (run 1)): -9.53 | Span (best-fit value) (P220A panel, WT-1 (run 1)): 116.5 | Top (best-fit value) (P220A panel, WT-1 (run 1)): 113 | Bottom (best-fit value) (P220A panel, WT-2 (run 2)): -6.932 | LogEC50 (best-fit value) (P220A panel, WT-2 (run 2)): -9.494 | Span (best-fit value) (P220A panel, WT-2 (run 2)): 126.2 | Top (best-fit value) (P220A panel, WT-2 (run 2)): 119.3 | Bottom (best-fit value) (P220A panel, WT-3 (run 3)): -3.016 | LogEC50 (best-fit value) (P220A panel, WT-3 (run 3)): -8.949 | Span (best-fit value) (P220A panel, WT-3 (run 3)): 106.8 | Top (best-fit value) (P220A panel, WT-3 (run 3)): 103.7 | Activation potency level (SSTR2, Fig. 1): nanomolar level | Fold of WT (Suppl. Tables 4/5, SSTR2-WT): 1.00 | Bottom (best-fit value) (W269A panel, WT-1 (run 1)): -3.016 | LogEC50 (best-fit value) (W269A panel, WT-1 (run 1)): -8.949 | Span (best-fit value) (W269A panel, WT-1 (run 1)): 106.8 | Top (best-fit value) (W269A panel, WT-1 (run 1)): 103.7 | Bottom (best-fit value) (W269A panel, WT-2 (run 2)): -3.466 | LogEC50 (best-fit value) (W269A panel, WT-2 (run 2)): -9.53 | Span (best-fit value) (W269A panel, WT-2 (run 2)): 116.5 | Top (best-fit value) (W269A panel, WT-2 (run 2)): 113 | Bottom (best-fit value) (W269A panel, WT-3 (run 3)): -6.932 | LogEC50 (best-fit value) (W269A panel, WT-3 (run 3)): -9.494 | Span (best-fit value) (W269A panel, WT-3 (run 3)): 126.2 | Top (best-fit value) (W269A panel, WT-3 (run 3)): 119.3 | Span (WT (I195A set)): 93.39 and 87.67 and 121.7 | Top (WT (I195A set)): 108 and 99.03 and 119.3 | LogEC50 (WT (I195A set), run 1, best-fit): -8.654 | LogEC50 (WT (I195A set), run 2, best-fit): -8.922 | LogEC50 (WT (I195A set), run 3, best-fit): -8.801 | Span (WT (I284A set)): 107.7 and 93.27 and 111.5 | Top (WT (I284A set)): 108.3 and 104.9 and 129.6 | LogEC50 (WT (I284A set), run 1, best-fit): -8.585 | LogEC50 (WT (I284A set), run 2, best-fit): -8.622 | LogEC50 (WT (I284A set), run 3, best-fit): -8.252 | Span (WT (L99A set)): 106.7 and 113.8 and 111.8 | Top (WT (L99A set)): 106.1 and 108 and 107.8 | LogEC50 (WT (L99A set), run 1, best-fit): -8.998 | LogEC50 (WT (L99A set), run 2, best-fit): -8.575 | LogEC50 (WT (L99A set), run 3, best-fit): -8.63 | Span (WT (T194A set)): 106.7 and 111.2 and 111 | Top (WT (T194A set)): 106.1 and 108.7 and 106.2 | LogEC50 (WT (T194A set), run 1, best-fit): -8.998 | LogEC50 (WT (T194A set), run 2, best-fit): -8.908 | LogEC50 (WT (T194A set), run 3, best-fit): -8.937 | Span (WT (Y50A set)): 113.7 and 115.8 and 115.1 | Top (WT (Y50A set)): 113.6 and 115.8 and 115.7 | LogEC50 (WT (Y50A set), run 1, best-fit): -8.071 | LogEC50 (WT (Y50A set), run 2, best-fit): -8.114 | LogEC50 (WT (Y50A set), run 3, best-fit): -8.128 | Span (best-fit value), cAMP inhibition [1]: 113.8 and 111.2 and 111.8 and 104.8 and 106.7 | Top (best-fit value), cAMP inhibition [1]: 108.7 and 107.8 and 108 and 105.3 and 106.1 | Bottom (best-fit) (WT-1, run paired with D295F): 3.567 | LogEC50 (WT-1, run paired with D295F): -9.512 | Span (best-fit) (WT-1, run paired with D295F): 103.1 | Top (best-fit) (WT-1, run paired with D295F): 106.7 | Bottom (best-fit) (WT-1, run paired with F294Y): 3.567 | LogEC50 (WT-1, run paired with F294Y): -9.512 | Span (best-fit) (WT-1, run paired with F294Y): 103.1 | Top (best-fit) (WT-1, run paired with F294Y): 106.7 | Bottom (best-fit) (WT-1, run paired with I195M): 12.84 | LogEC50 (WT-1, run paired with I195M): -8.964 | Span (best-fit) (WT-1, run paired with I195M): 85.7 | Top (best-fit) (WT-1, run paired with I195M): 98.54 | Bottom (best-fit) (WT-1, run paired with T194H): -4.818 | LogEC50 (WT-1, run paired with T194H): -8.937
